According to paper PMC11864979, “First-in-class ultralong-target-residence-time p38α inhibitors as a mitosis-targeted therapy for colorectal cancer” (Nature Cancer, 2025):
Where two headings read alike, the source gives them in different places.

How the values were obtained:
Experiment in all cases: selectivity profiling in a panel of 340 wild-type kinases (Reaction Biology Europe)
Format in all cases: binding
340 wild-type kinases [1] = target: T1, 340 wild-type kinases (Homo sapiens, UniProt P29322)
T1 construct: purchased Reaction Biology Europe
T1 sequence (P29322 28-1005): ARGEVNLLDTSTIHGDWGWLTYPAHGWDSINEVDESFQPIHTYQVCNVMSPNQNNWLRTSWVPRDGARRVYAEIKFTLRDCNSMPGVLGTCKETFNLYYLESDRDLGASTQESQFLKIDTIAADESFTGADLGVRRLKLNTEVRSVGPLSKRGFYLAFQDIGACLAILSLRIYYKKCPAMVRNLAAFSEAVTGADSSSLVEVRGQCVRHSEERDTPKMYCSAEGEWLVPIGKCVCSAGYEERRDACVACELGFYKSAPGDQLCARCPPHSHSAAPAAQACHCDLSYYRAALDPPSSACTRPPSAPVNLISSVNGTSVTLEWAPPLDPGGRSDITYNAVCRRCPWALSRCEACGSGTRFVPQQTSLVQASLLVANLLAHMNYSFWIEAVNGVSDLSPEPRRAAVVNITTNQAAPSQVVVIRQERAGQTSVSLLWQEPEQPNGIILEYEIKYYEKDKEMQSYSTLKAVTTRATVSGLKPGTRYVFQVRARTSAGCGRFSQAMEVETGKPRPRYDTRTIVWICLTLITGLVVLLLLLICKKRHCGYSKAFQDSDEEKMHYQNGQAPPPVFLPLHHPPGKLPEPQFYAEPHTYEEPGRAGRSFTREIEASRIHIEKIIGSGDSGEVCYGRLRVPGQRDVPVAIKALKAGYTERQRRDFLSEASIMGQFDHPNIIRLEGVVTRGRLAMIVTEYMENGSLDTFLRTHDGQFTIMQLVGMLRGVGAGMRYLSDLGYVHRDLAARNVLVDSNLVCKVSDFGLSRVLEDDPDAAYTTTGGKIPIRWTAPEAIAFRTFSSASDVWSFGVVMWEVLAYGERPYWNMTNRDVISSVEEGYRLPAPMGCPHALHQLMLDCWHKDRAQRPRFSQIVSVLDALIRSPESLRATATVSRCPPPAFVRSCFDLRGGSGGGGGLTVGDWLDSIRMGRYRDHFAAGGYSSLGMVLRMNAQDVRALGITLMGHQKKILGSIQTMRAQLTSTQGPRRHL

340 wild-type kinases [2] = target: T2, 340 wild-type kinases (Homo sapiens, UniProt P11802)
T2 construct: purchased Reaction Biology Europe
T2 sequence (P11802 whole entry): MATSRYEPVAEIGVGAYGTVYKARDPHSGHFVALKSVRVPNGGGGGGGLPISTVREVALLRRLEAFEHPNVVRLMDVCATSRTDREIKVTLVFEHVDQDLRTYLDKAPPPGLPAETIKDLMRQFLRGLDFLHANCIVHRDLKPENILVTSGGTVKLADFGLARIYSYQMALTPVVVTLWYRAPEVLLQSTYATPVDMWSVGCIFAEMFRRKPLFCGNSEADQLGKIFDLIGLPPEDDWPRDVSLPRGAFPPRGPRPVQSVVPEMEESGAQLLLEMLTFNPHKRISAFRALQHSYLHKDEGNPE

340 wild-type kinases [3] = target: T3, 340 wild-type kinases (Homo sapiens, UniProt P57078)
T3 construct: purchased Reaction Biology Europe
T3 sequence (P57078 1-832): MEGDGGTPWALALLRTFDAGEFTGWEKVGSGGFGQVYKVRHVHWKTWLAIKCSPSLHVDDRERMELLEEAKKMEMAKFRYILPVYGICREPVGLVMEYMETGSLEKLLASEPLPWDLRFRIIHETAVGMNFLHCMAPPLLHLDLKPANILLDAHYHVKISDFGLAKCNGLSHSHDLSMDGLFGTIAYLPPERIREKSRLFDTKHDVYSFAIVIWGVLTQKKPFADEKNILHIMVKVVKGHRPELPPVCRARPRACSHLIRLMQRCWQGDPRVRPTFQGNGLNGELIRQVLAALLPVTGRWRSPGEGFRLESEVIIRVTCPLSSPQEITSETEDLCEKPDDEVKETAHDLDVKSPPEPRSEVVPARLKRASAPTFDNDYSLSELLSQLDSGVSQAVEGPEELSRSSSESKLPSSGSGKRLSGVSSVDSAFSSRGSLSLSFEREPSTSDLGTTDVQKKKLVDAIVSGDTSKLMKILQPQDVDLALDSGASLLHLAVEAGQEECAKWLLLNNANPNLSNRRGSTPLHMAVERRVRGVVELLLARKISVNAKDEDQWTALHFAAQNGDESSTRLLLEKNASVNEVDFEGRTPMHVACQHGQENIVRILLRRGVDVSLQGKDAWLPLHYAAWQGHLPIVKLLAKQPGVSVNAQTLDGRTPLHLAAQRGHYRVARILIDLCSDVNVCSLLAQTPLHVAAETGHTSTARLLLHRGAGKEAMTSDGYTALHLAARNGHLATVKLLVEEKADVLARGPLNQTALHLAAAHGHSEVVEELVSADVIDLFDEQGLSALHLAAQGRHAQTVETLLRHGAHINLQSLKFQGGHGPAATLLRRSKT

340 wild-type kinases [4] = target: T4, 340 wild-type kinases (Homo sapiens, UniProt Q9UBE8)
T4 construct: purchased Reaction Biology Europe
T4 sequence (Q9UBE8 1-527): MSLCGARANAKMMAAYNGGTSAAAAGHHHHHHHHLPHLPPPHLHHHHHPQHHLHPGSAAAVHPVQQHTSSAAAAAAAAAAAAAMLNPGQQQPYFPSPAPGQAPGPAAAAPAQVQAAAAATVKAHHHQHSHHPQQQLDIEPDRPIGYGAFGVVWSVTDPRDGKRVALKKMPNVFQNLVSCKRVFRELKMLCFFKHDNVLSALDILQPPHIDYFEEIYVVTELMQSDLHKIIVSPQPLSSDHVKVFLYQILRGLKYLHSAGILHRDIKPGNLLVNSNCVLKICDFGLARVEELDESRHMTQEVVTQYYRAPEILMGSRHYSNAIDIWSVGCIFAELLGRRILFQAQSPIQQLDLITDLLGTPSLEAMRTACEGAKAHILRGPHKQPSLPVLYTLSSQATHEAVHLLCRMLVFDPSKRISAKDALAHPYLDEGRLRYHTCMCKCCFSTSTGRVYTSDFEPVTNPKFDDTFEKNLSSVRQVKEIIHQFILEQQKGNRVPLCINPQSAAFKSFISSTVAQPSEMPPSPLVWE

340 wild-type kinases [5] = target: T5, 340 wild-type kinases (Homo sapiens, UniProt P19525)
T5 construct: purchased Reaction Biology Europe
T5 sequence (P19525 whole entry): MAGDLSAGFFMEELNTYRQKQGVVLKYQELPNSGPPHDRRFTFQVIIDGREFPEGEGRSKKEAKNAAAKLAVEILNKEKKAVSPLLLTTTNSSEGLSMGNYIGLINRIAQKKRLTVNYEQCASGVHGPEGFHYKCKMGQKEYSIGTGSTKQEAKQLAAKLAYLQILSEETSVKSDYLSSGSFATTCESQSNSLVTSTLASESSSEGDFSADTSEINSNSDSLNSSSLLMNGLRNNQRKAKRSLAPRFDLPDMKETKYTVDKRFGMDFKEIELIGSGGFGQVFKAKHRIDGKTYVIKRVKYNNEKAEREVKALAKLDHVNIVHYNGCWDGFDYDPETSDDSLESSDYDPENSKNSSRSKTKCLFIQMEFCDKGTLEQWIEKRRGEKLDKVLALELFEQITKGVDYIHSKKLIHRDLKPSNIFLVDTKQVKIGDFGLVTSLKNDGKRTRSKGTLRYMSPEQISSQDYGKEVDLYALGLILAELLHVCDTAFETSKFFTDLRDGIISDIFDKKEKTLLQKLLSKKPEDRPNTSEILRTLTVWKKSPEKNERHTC

CNC(=O)c1ccc2c(c1)C(=O)c1ccc(Nc3ccc(F)c(NC(=O)C4CC4)c3)cc1CC2 [Compound 2015]
remaining activity at 0.2 µM (340 wild-type kinases [1]; 0.2 µM 2015, read-out: EPHA8 residual activity): 98.5%
remaining activity at 1 µM (340 wild-type kinases [1]; 1 µM 2015, read-out: EPHA8 residual activity): 95.3%
remaining activity at 0.2 µM (340 wild-type kinases [1]; EPHA8, 0.2 µM, read-out: residual activity): 98.5%
remaining activity at 1 µM (340 wild-type kinases [1]; EPHA8, 1 µM, read-out: residual activity): 95.3%
remaining activity at 0.2 µM (340 wild-type kinases [2]; 0.2 µM 2015, read-out: CDK4/CycD1 residual activity): 117%
remaining activity at 0.2 µM (340 wild-type kinases [2]; 0.2 µM 2015, read-out: CDK4/CycD2 residual activity): 109%
remaining activity at 0.2 µM (340 wild-type kinases [2]; 0.2 µM 2015, read-out: CDK4/CycD3 residual activity): 70.3%
remaining activity at 1 µM (340 wild-type kinases [2]; 1 µM 2015, read-out: CDK4/CycD1 residual activity): 98.4%
remaining activity at 1 µM (340 wild-type kinases [2]; 1 µM 2015, read-out: CDK4/CycD2 residual activity): 103%
remaining activity at 1 µM (340 wild-type kinases [2]; 1 µM 2015, read-out: CDK4/CycD3 residual activity): 81.7%
remaining activity at 0.2 µM (340 wild-type kinases [2]; CDK4/CycD1, 0.2 µM, read-out: residual activity): 117%
remaining activity at 0.2 µM (340 wild-type kinases [2]; CDK4/CycD2, 0.2 µM, read-out: residual activity): 109%
remaining activity at 1 µM (340 wild-type kinases [2]; CDK4/CycD2, 1 µM, read-out: residual activity): 103%
remaining activity at 0.2 µM (340 wild-type kinases [2]; CDK4/CycD3, 0.2 µM, read-out: residual activity): 70.3%
remaining activity at 1 µM (340 wild-type kinases [2]; CDK4/CycD3, 1 µM, read-out: residual activity): 81.7%
remaining activity at 0.2 µM (340 wild-type kinases [3]; 0.2 µM 2015, read-out: RIPK4 residual activity): 104%
remaining activity at 1 µM (340 wild-type kinases [3]; 1 µM 2015, read-out: RIPK4 residual activity): 98.2%
remaining activity at 0.2 µM (340 wild-type kinases [3]; RIPK4, 0.2 µM, read-out: residual activity): 104%
remaining activity at 1 µM (340 wild-type kinases [3]; RIPK4, 1 µM, read-out: residual activity): 98.2%
remaining activity at 0.2 µM (340 wild-type kinases [4]; 0.2 µM 2015, read-out: NLK residual activity): 92%
remaining activity at 1 µM (340 wild-type kinases [4]; 1 µM 2015, read-out: NLK residual activity): 85.5%
remaining activity at 0.2 µM (340 wild-type kinases [4]; NLK, 0.2 µM, read-out: residual activity): 92%
remaining activity at 1 µM (340 wild-type kinases [4]; NLK, 1 µM, read-out: residual activity): 85.5%
remaining activity at 0.2 µM (340 wild-type kinases [5]; 0.2 µM 2015, read-out: EIF2AK2 residual activity): 84.5%
remaining activity at 1 µM (340 wild-type kinases [5]; 1 µM 2015, read-out: EIF2AK2 residual activity): 85.2%
remaining activity at 0.2 µM (340 wild-type kinases [5]; EIF2AK2, 0.2 µM, read-out: residual activity): 84.5%
remaining activity at 1 µM (340 wild-type kinases [5]; EIF2AK2, 1 µM, read-out: residual activity): 85.2%
